Data: patent publication US11795177B2, “Substituted quinoline analogs as aldehyde dehydrogenase 1A1 (ALDH1A1) inhibitors” (THE UNITED STATES OF AMERICA, AS REPRESENTED BY THE …, priority 2017, dated 2023)

System: MIA PaCa-2 cells
Test: MIA PaCa2 cell-based assay (1,536-well high-content imaging ALDEFLUOR assay)
Set-up: species or system human
Conditions: Homo sapiens, 0.5 h, ALDEFLUOR BAAA substrate 500 nM, 30 minutes
Procedure: Example 359. MIA PaCa2 Cell-Based Assay (In Vitro Assay)
1,536-Well High-Content Imaging ALDEFLUOR Assay
The ALDEFLUOR™ kit was purchased from […] Technologies (Vancouver, Canada; #01700). MIA PaCa-2 cells (5 μL; 1,000 cells/well) were dispensed into black, optical quality (cyclic olefin copolymer) clear bottom, medium binding TC treated 1,536-well plates (Aurora Microplates, Whitefish Mont.) using a Multidrop Combi dispenser (ThermoFisher) and incubated overnight (37° C., 5% CO2, 85% RH). Media (RPMI 1640 (Life Technologies, Carlsbad, Calif.), supplemented with 2 mM L-Glutamine (Life Technologies), 10% HyClone™ fetal bovine serum (FBS, GE Healthcare, Piscataway, N.J.) and 100 U/mL penicillin and 100 μg/mL streptomycin (Life Technologies)) was subsequently removed by centrifuging plates upside down using a plate adaptor to collect media. A solution of BAAA substrate ([…] Technologies) and Hoechst 33342 (ThermoFisher, final concentrations of 500 nM and 0.5 nM, respectively) in ALDEFLUOR™ buffer ([…] Technologies #01700) was dispensed onto cells using a Multidrop Combi followed by immediate transfer (23 nL) of compound or control solutions using a Wako Pin-tool (final percentage of DMSO in the cell plates was 0.5%). Unless otherwise noted, all compounds were assayed as 16-point dilutions spanning a final concentration range of 1.4 nM to 47.8 μM. The neutral and positive assay controls were DMSO and DEAB (4.6 μM), respectively. Cells were incubated for 30 minutes or the indicated amount of time at 37° C., 5% CO2, 85% RH to allow the conversion of BAAA into BAA. Supernatant was subsequently removed by centrifugation as described above, then ALDEFLUOR™ buffer (3 μl) was dispensed by Multidrop Combi before imaging on an IN Cell 2200 (GE Healthcare).
The above assay was modified for an online robotic screening system. After cell plating and overnight incubation, 4 μL of media were removed using a 64-tip metal aspirator head on a Wako aspirator station, leaving 1 μL remaining in the well, followed by a 4 μL dispense of BAAA and Hoechst 33342 in ALDEFLUOR™ buffer, for a final concentration of 500 nM and 0.5 nM, respectively Immediately following the dispense, 23 nL of compound or control solutions were transferred using a Wako Pin-tool. Cells were incubated for 30 minutes at 37° C., 5% CO2, 85% RH, followed by a 4 μL media removal using the Wako aspirator, and a subsequent 3 μL addition of ALDEFLUOR™ buffer. Plates were then immediately read on the IN Cell 2200 as described below.
Image Acquisition and Analysis
For images captured on the IN Cell 2200 widefield automated microscope, a 10×0.45 NA Plan Apo objective lens was used to capture the entire well of the 1,536-well plate using standard DAPI (390/18×, 432/48 m) and FITC (475/28×, 525/48 m) filter sets at 50 msec and 100 msec exposures, respectively. Images were subsequently analyzed using IN Cell Investigator v1.6.2 analysis software's canned Multi-Target Analysis algorithm (GE Healthcare). Hoechst stained nuclei were identified using top hat segmentation with a minimum area of 75 μm^2 and sensitivity of 93. BAA-retaining cells captured via FITC channel, were identified using multiscale top hat segmentation with a minimum area of 100 μm^2 and a sensitivity setting of 16. […] Data were plotted using GraphPad Prism software (GraphPad, San Diego, Calif.).

IC50 [nM] | SMILES
< 500 | CC(=O)C1(c2ccccc2)CCN(c2c(C(=O)N3CCN(S(C)(=O)=O)CC3)cnc3ccc(F)cc23)CC1 [Example 216, 1-(1-(6-fluoro-3-(4-(methylsulfonyl)piperazine-1-carbonyl)quinolin-4-yl)-4-phenylpiperidin-4-yl)ethanone]
< 500 | COc1ccc2ncc(C(=O)N3CCN(S(C)(=O)=O)CC3)c(N3CCC(C#N)(c4ccccc4)CC3)c2c1 [Cpd. 317, 1-(6-methoxy-3-(4-(methylsulfonyl)piperazine-1-carbonyl)quinolin-4-yl)-4-phenylpiperidine-4-carbonitrile]
> 10000 | O=C(c1cnc2ccc(F)cc2c1N1CC2(CCCCC2)C1)N1CCN(C(=O)C2CC2)CC1 [Example 80, (4-(cyclopropanecarbonyl)piperazin-1-yl)(6-fluoro-4-(2-azaspiro[3.5]nonan-2-yl)quinolin-3-yl)methanone]
> 10000 | O=C(c1cnc2ccc(F)cc2c1N1C[C@H]2CCCC[C@H]2C1)N1CCN(C(=O)C2CC2)CC1 [Example 83, (4-(cyclopropanecarbonyl)piperazin-1-yl)(6-fluoro-4-((3aR*,7aS*)-hexahydro-1H-isoindol-2(3H)-yl)quinolin-3-yl)methanone]
1000 to 10000 | CC1(C#N)CCN(c2c(C(=O)N3CCN(S(C)(=O)=O)CC3)cnc3[nH]ccc23)CC1 [Example 236, 4-methyl-1-(5-(4-(methylsulfonyl)piperazine-1-carbonyl)-1H-pyrrolo[2,3-b]pyridin-4-yl)piperidine-4-carbonitrile]
< 500 | CCC1(C#N)CCN(c2c(C(=O)N3CCN(C(=O)C4CC4)CC3)cnc3ccc(F)cc23)CC1 [Example 202, 1-(3-(4-(cyclopropanecarbonyl)piperazine-1-carbonyl)-6-fluoroquinolin-4-yl)-4-ethylpiperidine-4-carbonitrile]
1000 to 10000 | CCC(=O)N1CCN(C(=O)c2cnc3ccc(F)cc3c2N2CCC(C)(C#N)CC2)CC1 [Example 91, 1-(6-fluoro-3-(4-propionylpiperazine-1-carbonyl)quinolin-4-yl)-4-methylpiperidine-4-carbonitrile]
< 500 | CS(=O)(=O)N1CCN(C(=O)c2cnc3ccc(F)cc3c2N2CCC(C#N)(c3ccc(Cl)cc3)CC2)CC1 [Example 275, 4-(4-chlorophenyl)-1-(6-fluoro-3-(4-(methylsulfonyl)piperazine-1-carbonyl)quinolin-4-yl)piperidine-4-carbonitrile]
1000 to 10000 | CC1(C#N)CCN(c2c(C(=O)N3CCN(C(=O)C4CC4)CC3)cnc3sccc23)CC1 [Example 219, 1-(5-(4-(cyclopropanecarbonyl)piperazine-1-carbonyl)thieno[2,3-b]pyridin-4-yl)-4-methylpiperidine-4-carbonitrile]
> 10000 | N#CC1(Cc2ccccc2)CCN(c2c(C(=O)N3CCN(C(=O)C4CC4)CC3)cnc3ccc(F)cc23)CC1 [Example 244, 4-benzyl-1-(3-(4-(cyclopropanecarbonyl)piperazine-1-carbonyl)-6-fluoroquinolin-4-yl)piperidine-4-carbonitrile]
> 10000 | O=C(c1cnc2ccc(F)cc2c1N1CCC(F)CC1)N1CCN(C(=O)C2CC2)CC1 [Example 76, (4-(cyclopropanecarbonyl)piperazin-1-yl)(6-fluoro-4-(4-fluoropiperidin-1-yl)quinolin-3-yl)methanone]
< 500 | N#CC1(c2ccccc2)CCN(c2c(C(=O)N3CCN(C(=O)C4CC4)CC3)cnc3ccsc23)CC1 [Example 282, 1-(6-(4-(cyclopropanecarbonyl)piperazine-1-carbonyl)thieno[3,2-b]pyridin-7-yl)-4-phenylpiperidine-4-carbonitrile]
1000 to 10000 | CC1(C#N)CCN(c2c(C(=O)N3CCN(S(C)(=O)=O)CC3)cnc3ccsc23)CC1 [Example 234, 4-methyl-1-(6-(4-(methylsulfonyl)piperazine-1-carbonyl)thieno[3,2-b]pyridin-7-yl)piperidine-4-carbonitrile]
< 500 | CS(=O)(=O)N1CCN(C(=O)c2cnc3cc(F)c(F)cc3c2-c2ccc(C3(C#N)CC3)cc2)CC1 [Cpd. 323, 1-(4-(6,7-difluoro-3-(4-(methylsulfonyl)piperazine-1-carbonyl)quinolin-4-yl)phenyl)cyclopropane-1-carbonitrile]
> 10000 | O=C(c1cnc2ccc(F)cc2c1N1CCC2(CCCCC2)C1)N1CCN(C(=O)C2CC2)CC1 [Example 79, (4-(cyclopropanecarbonyl)piperazin-1-yl)(6-fluoro-4-(2-azaspiro[4.5]decan-2-yl)quinolin-3-yl)methanone]
< 500 | CC1(C)CC=C(c2c(C(=O)N3CCN(C(=O)C4CC4)CC3)cnc3ccc(F)cc23)CC1 [Example 77, (4-(cyclopropanecarbonyl)piperazin-1-yl)(4-(4,4-dimethylcyclohex-1-en-1-yl)-6-fluoroquinolin-3-yl)methanone]
1000 to 10000 | CCC1(CC)CCN(c2c(C(=O)N3CCN(C(=O)C4CC4)CC3)cnc3ccc(F)cc23)CC1 [Example 81, (4-(cyclopropanecarbonyl)piperazin-1-yl)(4-(4,4-diethylpiperidin-1-yl)-6-fluoroquinolin-3-yl)methanone]
1000 to 10000 | Cc1ccc2ncc(C(=O)N3CCN(C(=O)C4CC4)CC3)c(N3CCC4(CC3)OCCO4)c2c1 [Example 30, (4-(cyclopropanecarbonyl)piperazin-1-yl)(6-methyl-4-(1,4-dioxa-8-azaspiro[4.5]decan-8-yl)quinolin-3-yl)methanone]
< 500 | CC(C)(C#N)c1ccc(-c2c(C(=O)N3CCN(S(C)(=O)=O)CC3)cnc3ccc(F)cc23)c(F)c1 [Cpd. 311, 2-(3-fluoro-4-(6-fluoro-3-(4-(methylsulfonyl)piperazine-1-carbonyl)quinolin-4-yl)phenyl)-2-methylpropanenitrile]
1000 to 10000 | CC1(C#N)CCN(c2c(C(=O)N3CCC(C(=O)C4CC4)CC3)cnc3ccc(F)cc23)CC1 [Example 194, 1-(3-(4-(cyclopropanecarbonyl)piperidine-1-carbonyl)-6-fluoroquinolin-4-yl)-4-methylpiperidine-4-carbonitrile]
> 10000 | CS(=O)(=O)N1CCN(C(=O)c2cnc3ccc(F)cc3c2N2CCC(C#N)CC2)CC1 [Cpd. 305, 1-(6-fluoro-3-(4-(methylsulfonyl)piperazine-1-carbonyl)quinolin-4-yl)piperidine-4-carbonitrile]
1000 to 10000 | CS(=O)(=O)N1CCN(C(=O)c2cnc3ccc(F)cc3c2N2CCC3(CC2)C(=O)Cc2ccccc23)CC1 [Example 247, 1′-(6-fluoro-3-(4-(methylsulfonyl)piperazine-1-carbonyl)quinolin-4-yl)spiro[indene-1,4′-piperidin]-2(3H)-one]
1000 to 10000 | CC1(C#N)CCN(c2c(C(=O)N3CCC(S(C)(=O)=O)CC3)cnc3ccc(F)cc23)CC1 [Example 188, 1-(6-fluoro-3-(4-(methylsulfonyl)piperidine-1-carbonyl)quinolin-4-yl)-4-methylpiperidine-4-carbonitrile]
< 500 | CS(=O)(=O)N1CCN(C(=O)c2cnc3ccsc3c2N2CCC(C#N)(c3ccccc3)CC2)CC1 [Example 285, 1-(6-(4-(methylsulfonyl)piperazine-1-carbonyl)thieno[3,2-b]pyridin-7-yl)-4-phenylpiperidine-4-carbonitrile]
> 10000 | CC1(C#N)CCN(c2c(C(=O)N3CCN(S(C)(=O)=O)C(C)(C)C3)cnc3ccc(F)cc23)CC1 [Example 229, 1-(3-(3,3-dimethyl-4-(methylsulfonyl)piperazine-1-carbonyl)-6-fluoroquinolin-4-yl)-4-methylpiperidine-4-carbonitrile]
1000 to 10000 | CN(C)C(=O)N1CCN(C(=O)c2cnc3ccc(F)cc3c2N2CCC(C)(C#N)CC2)CC1 [Example 182, 4-(4-(4-cyano-4-methylpiperidin-1-yl)-6-fluoroquinoline-3-carbonyl)-N,N-dimethylpiperazine-1-carboxamide]
